Experimental data published in PMC4490784, “Compensatory induction of MYC expression by sustained CDK9 inhibition via a BRD4-dependent mechanism” (eLife, 2015).

Tests used:
Test in all cases: KINOMEscan binding assay
[1] = target: T1, ABL1(T315I)-phosphorylated (Homo sapiens, UniProt P00519, T315I); settings: 1 µM i-CDK9; read-out: % Retention on Solid Support
T1 construct: purchased DiscoveRx KINOMEscan
How it was run: (§1)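 i-CDK9 at 1 and 10 µM; competition binding against an immobilized active-site probe; >400-kinase panel.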

ASK2 = target: T2, ASK2 (Homo sapiens, UniProt O95382); settings: read-out: % Retention on Solid Support
T2 construct: purchased DiscoveRx KINOMEscan
T2 sequence (O95382 whole entry): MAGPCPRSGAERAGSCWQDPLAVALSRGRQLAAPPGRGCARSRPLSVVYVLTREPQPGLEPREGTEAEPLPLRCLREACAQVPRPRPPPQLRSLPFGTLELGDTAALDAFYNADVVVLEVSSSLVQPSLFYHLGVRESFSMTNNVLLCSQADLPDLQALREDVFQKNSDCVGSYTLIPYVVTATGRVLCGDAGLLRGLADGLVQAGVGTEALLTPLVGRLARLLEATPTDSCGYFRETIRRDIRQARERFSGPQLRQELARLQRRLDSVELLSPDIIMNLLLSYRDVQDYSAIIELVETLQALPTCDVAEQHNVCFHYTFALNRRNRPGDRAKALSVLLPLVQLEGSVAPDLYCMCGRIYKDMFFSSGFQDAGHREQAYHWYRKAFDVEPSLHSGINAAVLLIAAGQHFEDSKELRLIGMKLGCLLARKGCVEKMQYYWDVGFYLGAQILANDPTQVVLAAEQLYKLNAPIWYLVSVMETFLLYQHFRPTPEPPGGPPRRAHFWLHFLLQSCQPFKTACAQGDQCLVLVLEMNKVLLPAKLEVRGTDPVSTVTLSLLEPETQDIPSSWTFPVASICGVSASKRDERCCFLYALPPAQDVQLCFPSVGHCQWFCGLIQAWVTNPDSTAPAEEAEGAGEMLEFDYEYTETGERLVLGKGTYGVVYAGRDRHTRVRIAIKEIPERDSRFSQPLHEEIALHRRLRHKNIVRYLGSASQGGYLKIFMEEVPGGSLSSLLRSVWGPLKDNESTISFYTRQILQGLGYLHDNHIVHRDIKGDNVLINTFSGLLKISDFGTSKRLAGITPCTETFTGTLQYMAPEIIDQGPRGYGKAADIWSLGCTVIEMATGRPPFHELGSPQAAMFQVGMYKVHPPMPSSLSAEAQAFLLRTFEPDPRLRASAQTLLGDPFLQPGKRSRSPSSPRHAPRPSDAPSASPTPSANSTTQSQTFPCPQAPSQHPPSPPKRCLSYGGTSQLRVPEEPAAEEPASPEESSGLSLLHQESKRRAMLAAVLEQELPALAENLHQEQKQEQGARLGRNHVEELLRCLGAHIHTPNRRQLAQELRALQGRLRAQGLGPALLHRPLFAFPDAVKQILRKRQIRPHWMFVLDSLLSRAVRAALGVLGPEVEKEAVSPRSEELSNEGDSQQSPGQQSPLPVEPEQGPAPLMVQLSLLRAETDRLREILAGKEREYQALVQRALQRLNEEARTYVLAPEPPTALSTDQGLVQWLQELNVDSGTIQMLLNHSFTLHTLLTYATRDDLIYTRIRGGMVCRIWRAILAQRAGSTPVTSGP
How it was run: as §1

CASK = target: T3, CASK (Homo sapiens, UniProt O14936); settings: 1 µM i-CDK9; read-out: % Retention on Solid Support
T3 construct: purchased DiscoveRx KINOMEscan
How it was run: as §1

CDC2L2 = target: T4, CDC2L2 (Homo sapiens, UniProt Q9UQ88); settings: read-out: % Retention on Solid Support
T4 construct: purchased DiscoveRx KINOMEscan
T4 sequence (Q9UQ88 whole entry): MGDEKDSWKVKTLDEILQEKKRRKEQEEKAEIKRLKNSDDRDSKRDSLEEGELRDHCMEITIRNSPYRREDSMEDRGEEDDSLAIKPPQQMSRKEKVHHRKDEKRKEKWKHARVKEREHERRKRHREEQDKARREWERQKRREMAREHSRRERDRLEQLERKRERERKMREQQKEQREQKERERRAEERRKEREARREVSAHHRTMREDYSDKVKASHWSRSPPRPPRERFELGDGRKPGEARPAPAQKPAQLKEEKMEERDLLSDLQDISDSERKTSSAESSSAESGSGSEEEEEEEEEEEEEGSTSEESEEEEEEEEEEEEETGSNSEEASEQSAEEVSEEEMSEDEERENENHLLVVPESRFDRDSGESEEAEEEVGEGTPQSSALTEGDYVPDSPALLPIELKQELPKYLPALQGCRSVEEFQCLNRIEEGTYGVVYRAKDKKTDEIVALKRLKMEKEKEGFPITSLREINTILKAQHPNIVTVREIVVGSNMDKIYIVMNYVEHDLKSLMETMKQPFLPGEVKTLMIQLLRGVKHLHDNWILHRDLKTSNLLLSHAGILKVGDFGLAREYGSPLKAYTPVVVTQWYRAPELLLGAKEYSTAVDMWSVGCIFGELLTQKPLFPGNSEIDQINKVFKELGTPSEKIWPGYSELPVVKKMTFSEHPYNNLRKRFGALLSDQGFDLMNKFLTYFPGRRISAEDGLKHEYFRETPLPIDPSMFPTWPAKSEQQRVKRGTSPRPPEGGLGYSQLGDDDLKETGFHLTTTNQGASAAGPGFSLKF
How it was run: as §1

CSK = target: T5, CSK (Homo sapiens, UniProt P41240)
T5 construct: purchased DiscoveRx KINOMEscan
How it was run: as §1

EPHB6 = target: T6, EPHB6 (Homo sapiens, UniProt O15197); settings: read-out: % Retention on Solid Support
T6 construct: purchased DiscoveRx KINOMEscan
How it was run: as §1

ERBB2 = target: T7, ERBB2 (Homo sapiens, UniProt P04626); settings: read-out: % Retention on Solid Support
T7 construct: purchased DiscoveRx KINOMEscan
T7 sequence (P04626 23-1255): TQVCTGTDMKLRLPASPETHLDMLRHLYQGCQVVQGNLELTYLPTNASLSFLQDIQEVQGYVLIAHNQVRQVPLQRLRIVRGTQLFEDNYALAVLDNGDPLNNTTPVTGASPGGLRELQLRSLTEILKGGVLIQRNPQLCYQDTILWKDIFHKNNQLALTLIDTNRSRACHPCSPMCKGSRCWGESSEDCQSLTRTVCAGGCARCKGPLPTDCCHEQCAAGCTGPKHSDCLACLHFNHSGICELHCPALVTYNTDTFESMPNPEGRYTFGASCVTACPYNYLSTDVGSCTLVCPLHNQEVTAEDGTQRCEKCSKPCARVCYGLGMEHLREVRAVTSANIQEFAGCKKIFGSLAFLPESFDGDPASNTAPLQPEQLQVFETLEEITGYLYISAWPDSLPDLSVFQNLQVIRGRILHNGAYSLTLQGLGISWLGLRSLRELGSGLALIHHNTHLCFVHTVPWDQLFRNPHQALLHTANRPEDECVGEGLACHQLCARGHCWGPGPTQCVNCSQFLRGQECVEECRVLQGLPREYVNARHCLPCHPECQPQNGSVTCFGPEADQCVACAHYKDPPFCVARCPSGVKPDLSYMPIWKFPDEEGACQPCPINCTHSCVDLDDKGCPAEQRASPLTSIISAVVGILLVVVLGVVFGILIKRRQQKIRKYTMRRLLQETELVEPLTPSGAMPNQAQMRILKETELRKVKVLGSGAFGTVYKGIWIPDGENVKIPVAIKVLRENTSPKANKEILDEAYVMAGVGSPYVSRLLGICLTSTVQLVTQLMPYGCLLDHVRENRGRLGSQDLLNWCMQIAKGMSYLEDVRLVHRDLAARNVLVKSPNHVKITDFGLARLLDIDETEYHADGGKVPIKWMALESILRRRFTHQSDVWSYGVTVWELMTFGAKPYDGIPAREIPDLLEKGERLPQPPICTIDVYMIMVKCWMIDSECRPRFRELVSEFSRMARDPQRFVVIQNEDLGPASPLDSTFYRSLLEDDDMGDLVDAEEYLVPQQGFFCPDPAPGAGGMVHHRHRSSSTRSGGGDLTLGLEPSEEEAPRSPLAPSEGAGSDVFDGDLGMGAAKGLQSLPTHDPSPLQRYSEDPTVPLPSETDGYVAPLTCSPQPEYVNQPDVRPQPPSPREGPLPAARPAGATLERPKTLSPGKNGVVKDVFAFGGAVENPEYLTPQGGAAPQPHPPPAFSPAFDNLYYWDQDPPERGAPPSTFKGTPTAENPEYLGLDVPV
How it was run: as §1

ERK4 = target: T8, ERK4 (Homo sapiens, UniProt P31152); settings: read-out: % Retention on Solid Support
T8 construct: purchased DiscoveRx KINOMEscan
How it was run: as §1

IGF1R = target: T9, IGF1R (Homo sapiens, UniProt P08069); settings: read-out: % Retention on Solid Support
T9 construct: purchased DiscoveRx KINOMEscan
How it was run: as §1

IKK-beta = target: T10, IKK-beta (Homo sapiens, UniProt O14920); settings: read-out: % Retention on Solid Support
T10 construct: purchased DiscoveRx KINOMEscan
How it was run: as §1

INSR = target: T11, INSR (Homo sapiens, UniProt P06213); settings: read-out: % Retention on Solid Support
T11 construct: purchased DiscoveRx KINOMEscan
How it was run: as §1

MAP3K4 = target: T12, MAP3K4 (Homo sapiens, UniProt Q9Y6R4); settings: read-out: % Retention on Solid Support
T12 construct: purchased DiscoveRx KINOMEscan
How it was run: as §1

MYLK4 = target: T13, MYLK4 (Homo sapiens, UniProt Q86YV6); settings: read-out: % Retention on Solid Support
T13 construct: purchased DiscoveRx KINOMEscan
How it was run: as §1

NEK4 = target: T14, NEK4 (Homo sapiens, UniProt P51957); settings: 1 µM i-CDK9; read-out: % Retention on Solid Support
T14 construct: purchased DiscoveRx KINOMEscan
How it was run: as §1

OSR1 = target: T15, OSR1 (Homo sapiens, UniProt O95747); settings: read-out: % Retention on Solid Support
T15 construct: purchased DiscoveRx KINOMEscan
How it was run: as §1

PAK4 = target: T16, PAK4 (Homo sapiens, UniProt O96013); settings: read-out: % Retention on Solid Support
T16 construct: purchased DiscoveRx KINOMEscan
How it was run: as §1

PCTK2 = target: T17, PCTK2 (Homo sapiens, UniProt Q00537); settings: read-out: % Retention on Solid Support
T17 construct: purchased DiscoveRx KINOMEscan
How it was run: as §1

PIK3C2B = target: T18, PIK3C2B (Homo sapiens, UniProt O00750); settings: read-out: % Retention on Solid Support
T18 construct: purchased DiscoveRx KINOMEscan
How it was run: as §1

PIM1 = target: T19, PIM1 (Homo sapiens, UniProt P11309); settings: read-out: % Retention on Solid Support
T19 construct: purchased DiscoveRx KINOMEscan
T19 sequence (P11309 whole entry): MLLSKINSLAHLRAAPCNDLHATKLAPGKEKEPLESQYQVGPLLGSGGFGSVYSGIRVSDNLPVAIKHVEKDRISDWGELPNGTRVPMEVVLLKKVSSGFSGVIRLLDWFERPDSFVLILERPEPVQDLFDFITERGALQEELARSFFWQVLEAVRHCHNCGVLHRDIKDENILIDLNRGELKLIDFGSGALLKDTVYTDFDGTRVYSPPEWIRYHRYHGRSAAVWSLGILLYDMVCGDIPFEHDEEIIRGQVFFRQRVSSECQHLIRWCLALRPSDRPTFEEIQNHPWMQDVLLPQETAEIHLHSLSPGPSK
How it was run: as §1

PRKD1 = target: T20, PRKD1 (Homo sapiens, UniProt Q15139); settings: read-out: % Retention on Solid Support
T20 construct: purchased DiscoveRx KINOMEscan
How it was run: as §1

PRKG1 = target: T21, PRKG1 (Homo sapiens, UniProt Q13976); settings: read-out: % Retention on Solid Support
T21 construct: purchased DiscoveRx KINOMEscan
How it was run: as §1

PRKR = target: T22, PRKR (Homo sapiens, UniProt P19525)
T22 construct: purchased DiscoveRx KINOMEscan
How it was run: as §1

QSK = target: T23, QSK (Homo sapiens, UniProt Q9Y2K2)
T23 construct: purchased DiscoveRx KINOMEscan
How it was run: as §1

RET = target: T24, RET (Homo sapiens, UniProt P07949); settings: read-out: % Retention on Solid Support
T24 construct: purchased DiscoveRx KINOMEscan
T24 sequence (P07949 29-1114): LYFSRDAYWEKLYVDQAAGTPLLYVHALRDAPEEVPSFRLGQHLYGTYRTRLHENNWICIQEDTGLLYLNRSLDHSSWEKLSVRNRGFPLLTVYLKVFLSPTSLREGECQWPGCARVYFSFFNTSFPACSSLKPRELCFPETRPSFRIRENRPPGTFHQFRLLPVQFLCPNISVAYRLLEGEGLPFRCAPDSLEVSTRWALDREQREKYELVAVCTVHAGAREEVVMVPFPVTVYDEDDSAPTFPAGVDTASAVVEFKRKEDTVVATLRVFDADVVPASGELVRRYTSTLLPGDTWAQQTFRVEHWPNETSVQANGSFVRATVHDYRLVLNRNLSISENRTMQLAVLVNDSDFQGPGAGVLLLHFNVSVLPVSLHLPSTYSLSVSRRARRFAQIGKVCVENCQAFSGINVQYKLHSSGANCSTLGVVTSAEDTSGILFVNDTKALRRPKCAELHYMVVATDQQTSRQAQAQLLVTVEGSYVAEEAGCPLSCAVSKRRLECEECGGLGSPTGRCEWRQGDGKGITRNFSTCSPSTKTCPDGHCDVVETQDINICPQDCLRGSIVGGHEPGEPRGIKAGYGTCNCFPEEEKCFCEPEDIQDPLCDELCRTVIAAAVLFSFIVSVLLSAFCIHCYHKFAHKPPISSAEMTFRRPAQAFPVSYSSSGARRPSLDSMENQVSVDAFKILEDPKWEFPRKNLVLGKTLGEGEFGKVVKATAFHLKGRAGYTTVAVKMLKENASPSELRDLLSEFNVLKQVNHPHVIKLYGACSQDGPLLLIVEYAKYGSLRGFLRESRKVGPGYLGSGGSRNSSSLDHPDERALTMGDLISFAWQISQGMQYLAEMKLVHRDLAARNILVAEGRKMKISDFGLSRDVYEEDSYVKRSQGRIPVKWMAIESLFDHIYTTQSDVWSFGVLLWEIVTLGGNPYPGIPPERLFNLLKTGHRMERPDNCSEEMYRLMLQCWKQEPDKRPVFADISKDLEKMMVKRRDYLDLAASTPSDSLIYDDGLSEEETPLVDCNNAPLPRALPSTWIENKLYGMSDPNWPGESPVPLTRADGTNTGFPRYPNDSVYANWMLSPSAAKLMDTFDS
How it was run: as §1

[2] = target: T25, RSK1(Kin.Dom.1-N-terminal) (Homo sapiens, UniProt Q15418); settings: read-out: % Retention on Solid Support
T25 construct: RSK1(Kin.Dom.1-N-terminal); purchased DiscoveRx KINOMEscan
How it was run: as §1

[3] = target: T26, RSK3(Kin.Dom.1-N-terminal) (Homo sapiens, UniProt Q15349); settings: read-out: % Retention on Solid Support
T26 construct: RSK3(Kin.Dom.1-N-terminal); purchased DiscoveRx KINOMEscan
T26 sequence (Q15349 1-388 limits assumed): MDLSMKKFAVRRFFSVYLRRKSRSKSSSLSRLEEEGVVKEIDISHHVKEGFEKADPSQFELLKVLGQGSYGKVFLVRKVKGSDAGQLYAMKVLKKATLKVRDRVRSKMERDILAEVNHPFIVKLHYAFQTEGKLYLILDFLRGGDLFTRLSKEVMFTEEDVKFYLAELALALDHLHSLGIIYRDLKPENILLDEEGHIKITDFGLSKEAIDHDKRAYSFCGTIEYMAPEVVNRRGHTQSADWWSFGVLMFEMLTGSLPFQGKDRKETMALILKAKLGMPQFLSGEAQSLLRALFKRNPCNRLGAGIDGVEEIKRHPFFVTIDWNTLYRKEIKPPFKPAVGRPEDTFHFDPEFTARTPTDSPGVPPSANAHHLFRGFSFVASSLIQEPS
How it was run: as §1

SIK = target: T27, SIK (Homo sapiens, UniProt P57059)
T27 construct: purchased DiscoveRx KINOMEscan
How it was run: as §1

SRMS = target: T28, SRMS (Homo sapiens, UniProt Q9H3Y6); settings: read-out: % Retention on Solid Support
T28 construct: purchased DiscoveRx KINOMEscan
How it was run: as §1

TGFBR2 = target: T29, TGFBR2 (Homo sapiens, UniProt P37173); settings: read-out: % Retention on Solid Support
T29 construct: purchased DiscoveRx KINOMEscan
How it was run: as §1

Q: With `N[C@H]1CC[C@H](Nc2cc(-c3cccc(NCc4cccc(F)c4)n3)c(Cl)cn2)CC1` [i-CDK9, N2′-(trans-4-aminocyclohexyl)-5′-chloro-N6-(3-fluorobenzyl)-2,4′-bipyridine-2′,6-diamine] as the compound, how does the remaining binding at 1 µM [1] read?
A: Its remaining binding at 1 µM is 100%.

Q: What about the remaining binding at 1 µM (ASK2; 1 µM i-CDK9) of the same compound?
A: The remaining binding at 1 µM was 100%.

Q: And the remaining binding at 10 µM (ASK2; 10 µM i-CDK9)?
A: The remaining binding at 10 µM was 92%.

Q: And the remaining binding at 1 µM (CASK)?
A: Its remaining binding at 1 µM is 100%.

Q: And the remaining binding at 1 µM (CDC2L2; 1 µM i-CDK9)?
A: Its remaining binding at 1 µM is 100%.

Q: What about the remaining binding at 10 µM (CDC2L2; 10 µM i-CDK9) of the same compound?
A: The remaining binding at 10 µM was 33%.

Q: And the “% Retention on Solid Support” value (CSK; 1 µM i-CDK9)?
A: The value was 100%.

Q: And the “% Retention on Solid Support” value (CSK; 10 µM i-CDK9)?
A: Its value is 100%.

Q: What about the remaining binding at 1 µM (EPHB6; 1 µM i-CDK9) of the same compound?
A: The remaining binding at 1 µM was 47%.

Q: What about the remaining binding at 10 µM (EPHB6; 10 µM i-CDK9) of the same compound?
A: Its remaining binding at 10 µM is 74%.

Q: And the remaining binding at 1 µM (ERBB2; 1 µM i-CDK9)?
A: The remaining binding at 1 µM was 88%.

Q: What about the remaining binding at 10 µM (ERBB2; 10 µM i-CDK9) of the same compound?
A: The remaining binding at 10 µM was 100%.

Q: And the remaining binding at 1 µM (ERK4; 1 µM i-CDK9)?
A: Its remaining binding at 1 µM is 100%.

Q: And the remaining binding at 10 µM (ERK4; 10 µM i-CDK9)?
A: The remaining binding at 10 µM was 100%.

Q: And the remaining binding at 1 µM (IGF1R; 1 µM i-CDK9)?
A: Its remaining binding at 1 µM is 94%.

Q: What about the remaining binding at 10 µM (IGF1R; 10 µM i-CDK9) of the same compound?
A: Its remaining binding at 10 µM is 100%.

Q: What about the remaining binding at 1 µM (IKK-beta; 1 µM i-CDK9) of the same compound?
A: Its remaining binding at 1 µM is 100%.

Q: And the remaining binding at 10 µM (IKK-beta; 10 µM i-CDK9)?
A: The remaining binding at 10 µM was 87%.

Q: What about the remaining binding at 1 µM (INSR; 1 µM i-CDK9) of the same compound?
A: The remaining binding at 1 µM was 100%.

Q: What about the remaining binding at 10 µM (INSR; 10 µM i-CDK9) of the same compound?
A: Its remaining binding at 10 µM is 81%.

Q: And the remaining binding at 1 µM (MAP3K4; 1 µM i-CDK9)?
A: Its remaining binding at 1 µM is 87%.

Q: What about the remaining binding at 10 µM (MAP3K4; 10 µM i-CDK9) of the same compound?
A: Its remaining binding at 10 µM is 96%.

Q: And the remaining binding at 1 µM (MYLK4; 1 µM i-CDK9)?
A: Its remaining binding at 1 µM is 94%.

Q: What about the remaining binding at 10 µM (MYLK4; 10 µM i-CDK9) of the same compound?
A: The remaining binding at 10 µM was 73%.

Q: And the remaining binding at 1 µM (NEK4)?
A: Its remaining binding at 1 µM is 100%.

Q: What about the remaining binding at 1 µM (OSR1; 1 µM i-CDK9) of the same compound?
A: The remaining binding at 1 µM was 97%.

Q: What about the remaining binding at 10 µM (OSR1; 10 µM i-CDK9) of the same compound?
A: Its remaining binding at 10 µM is 85%.

Q: What about the remaining binding at 1 µM (PAK4; 1 µM i-CDK9) of the same compound?
A: The remaining binding at 1 µM was 100%.

Q: And the remaining binding at 10 µM (PAK4; 10 µM i-CDK9)?
A: Its remaining binding at 10 µM is 100%.

Q: What about the remaining binding at 1 µM (PCTK2; 1 µM i-CDK9) of the same compound?
A: Its remaining binding at 1 µM is 14%.

Q: What about the remaining binding at 10 µM (PCTK2; 10 µM i-CDK9) of the same compound?
A: Its remaining binding at 10 µM is 0.05%.

Q: What about the remaining binding at 1 µM (PIK3C2B; 1 µM i-CDK9) of the same compound?
A: The remaining binding at 1 µM was 100%.

Q: And the remaining binding at 10 µM (PIK3C2B; 10 µM i-CDK9)?
A: The remaining binding at 10 µM was 95%.

Q: What about the remaining binding at 1 µM (PIM1; 1 µM i-CDK9) of the same compound?
A: The remaining binding at 1 µM was 100%.

Q: What about the remaining binding at 10 µM (PIM1; 10 µM i-CDK9) of the same compound?
A: Its remaining binding at 10 µM is 23%.

Q: What about the remaining binding at 1 µM (PRKD1; 1 µM i-CDK9) of the same compound?
A: The remaining binding at 1 µM was 55%.

Q: And the remaining binding at 10 µM (PRKD1; 10 µM i-CDK9)?
A: The remaining binding at 10 µM was 20%.

Q: And the remaining binding at 1 µM (PRKG1; 1 µM i-CDK9)?
A: The remaining binding at 1 µM was 81%.

Q: And the remaining binding at 10 µM (PRKG1; 10 µM i-CDK9)?
A: Its remaining binding at 10 µM is 88%.

Q: What about the “% Retention on Solid Support” value (PRKR; 1 µM i-CDK9) of the same compound?
A: Its value is 84%.

Q: And the “% Retention on Solid Support” value (PRKR; 10 µM i-CDK9)?
A: Its value is 100%.

Q: What about the “% Retention on Solid Support” value (QSK; 1 µM i-CDK9) of the same compound?
A: The value was 7.4%.

Q: And the “% Retention on Solid Support” value (QSK; 10 µM i-CDK9)?
A: Its value is 92%.

Q: And the remaining binding at 1 µM (RET; 1 µM i-CDK9)?
A: Its remaining binding at 1 µM is 100%.

Q: What about the remaining binding at 10 µM (RET; 10 µM i-CDK9) of the same compound?
A: The remaining binding at 10 µM was 100%.

Q: What about the remaining binding at 1 µM ([2]; 1 µM i-CDK9) of the same compound?
A: Its remaining binding at 1 µM is 100%.

Q: What about the remaining binding at 10 µM ([2]; 10 µM i-CDK9) of the same compound?
A: The remaining binding at 10 µM was 82%.

Q: And the remaining binding at 1 µM ([3]; 1 µM i-CDK9)?
A: The remaining binding at 1 µM was 100%.

Q: And the remaining binding at 10 µM ([3]; 10 µM i-CDK9)?
A: The remaining binding at 10 µM was 78%.

Q: And the “% Retention on Solid Support” value (SIK; 1 µM i-CDK9)?
A: Its value is 100%.

Q: What about the “% Retention on Solid Support” value (SIK; 10 µM i-CDK9) of the same compound?
A: The value was 100%.

Q: What about the remaining binding at 1 µM (SRMS; 1 µM i-CDK9) of the same compound?
A: The remaining binding at 1 µM was 99%.

Q: And the remaining binding at 10 µM (SRMS; 10 µM i-CDK9)?
A: The remaining binding at 10 µM was 80%.

Q: And the remaining binding at 1 µM (TGFBR2; 1 µM i-CDK9)?
A: The remaining binding at 1 µM was 87%.

Q: What about the remaining binding at 10 µM (TGFBR2; 10 µM i-CDK9) of the same compound?
A: Its remaining binding at 10 µM is 100%.
